| Structure (SMILES) | logP |
| --- | --- |
| CC(=O)OCC1=C(C(=O)O)N2C(=O)C(NC(=O)Cc3ccc(-c4ccc(Cl)cc4)o3)C2SC1 (centres undefined) | 2.76 |
| CC1=C(C(=O)O)N2C(=O)C(NC(=O)Cc3ccc(-c4ccc(Cl)cc4)o3)C2SC1 (centres undefined) | 2.38 |
| CC(=O)OCC1=C(C(=O)O)N2C(=O)C(NC(=O)Cc3ccc([N+](=O)[O-])o3)C2SC1 (centres undefined) | 0.72 |
| CC(=O)OCC1=C(C(=O)O)N2C(=O)C(NC(=O)Cc3ccc(-c4ccccc4Cl)o3)C2SC1 (centres undefined) | 2.42 |
| CC(=O)OCC1=C(C(=O)O)N2C(=O)C(NC(=O)Cc3ccc(-c4c(Cl)cccc4Cl)o3)C2SC1 (centres undefined) | 2.78 |

Now from value to molecule:

| logP | Structure (SMILES) |
| --- | --- |
| 1.66 | CC1=C(C(=O)O)N2C(=O)C(NC(=O)Cc3ccc(-c4ccccc4)o3)C2SC1 (centres undefined) |
| -0.13 | CC1=C(C(=O)O)N2C(=O)C(NC(=O)Cc3ccco3)C2SC1 (centres undefined) |
| 3.6 | CC1=C(C(=O)O)N2C(=O)C(NC(=O)Cc3ccc(-c4c(Cl)cccc4Cl)o3)C2SC1 (centres undefined) |
| 0.09 | CC(=O)OCC1=C(C(=O)O)N2C(=O)C(NC(=O)Cc3ccco3)C2SC1 (centres undefined) |
